Data published in patent US20240401144A2, “PRIMER-PROBE COMPOSITION, KIT, AND DETECTION METHOD” (ASCENTAWITS PHARMACEUTICALS, LTD., priority 2021, published 2024).

How the values were obtained:
Assay type in all cases: cell-based
[1] = test system: NCI-H2110 NSCLC cell line; assay: Ex vivo proliferation assay, 72 h exposure; conditions: Homo sapiens; NCI-H2110, 72 h of exposure; read-out: 3424 IC50
Description: (§1) Exponentially growing cells were inoculated. After 24 h, the test compound OBI-3424 was added. After addition of the test compound OBI-3424, plates were incubated in a standard tissue incubator at 37° C. for the indicated hours. At the end of the experiment, viable cells were detected using the CellTiter Glo (CTG) assay kit or AlamarBlue. Drug concentrations (IC50) resulting in 50% growth inhibition relative to untreated control were calculated using XLfit (IDBS, Boston, MA) or Prism 6 (GraphPad, San Diego, CA).
(§2) After exposing the hepatocellular carcinoma cell lines to compound OBI-3424 for 96 h and exposing the NSCLC cell lines to compound OBI-3424 for 72 h, the IC50 value was determined by ex vivo proliferation assay, and the expression of AKR1C3 protein in hepatocellular carcinoma cell lines was determined by Western blotting (tubulin was used as loading control). The expression data of AKR1C3 RNA in the hepatocellular carcinoma cell lines and in the NSCLC cell lines were from CrownBio database (https://db.crownbio.com/Crownbio/OncoExpress_Login.aspx).

[2] = test system: NCI-H1563 NSCLC cell line; assay: Ex vivo proliferation assay, 72 h exposure; conditions: Homo sapiens; NCI-H1563, 72 h of exposure; read-out: 3424 IC50
Description: as §1, §2

NCIH1755 NSCLC cell line = assay: Ex vivo proliferation assay, 72 h exposure; conditions: Homo sapiens, NCI-H1755; NCIH1755, 72 h of exposure; read-out: 3424 IC50
Description: as §1, §2

[3] = test system: NCI-H1792 NSCLC cell line; assay: Ex vivo proliferation assay, 72 h exposure; conditions: Homo sapiens; NCI-H1792, 72 h of exposure; read-out: 3424 IC50
Description: as §1, §2

[4] = test system: NCI-H2228 NSCLC cell line; assay: Ex vivo proliferation assay, 72 h exposure; conditions: Homo sapiens; NCI-H2228, 72 h of exposure; read-out: 3424 IC50
Description: as §1, §2

NCI-H23 NSCLC cell line = assay: Ex vivo proliferation assay, 72 h exposure; conditions: Homo sapiens; NCI-H23, 72 h of exposure; read-out: 3424 IC50
Description: as §1, §2

NCI-H522 NSCLC cell line = assay: Ex vivo proliferation assay, 72 h exposure; conditions: Homo sapiens; NCI-H522, 72 h of exposure; read-out: 3424 IC50
Description: as §1, §2

[5] = test system: NCI-H1944 NSCLC cell line; assay: Ex vivo proliferation assay, 72 h exposure; conditions: Homo sapiens; NCI-H1944, 72 h of exposure; read-out: 3424 IC50
Description: as §1, §2

NCIH2106 NSCLC cell line = assay: Ex vivo proliferation assay, 72 h exposure; conditions: Homo sapiens; NCIH2106, 72 h of exposure; read-out: 3424 IC50
Description: as §1, §2

ATN-1 cell line = assay: Ex vivo cytotoxicity assay, leukemia cell lines; conditions: Homo sapiens; Table 5: ATN-1, T-ALL (adult), 72 h; AKR1C3 expression Low
Description: (§3) Leukemia cell lines were suspended in RPMI medium supplemented with FBS (Biosera), while ALL PDX cells were cultured in QBSF medium (Quality Biological Inc.,) supplemented with Flt-3 ligand (20 ng/ml, BioNovus Life Sciences) or IL7 (10-20 ng/ml, Jomar Life Research). Cells were inoculated according to the optimal cell density and incubated for 3h or overnight (37° C., 5% CO2). PDX cells and leukemia cell lines were treated with OBI-3424 ([…]) or medium control for 48 or 72 h, respectively. Viability was determined using Alamar Blue reduction assay or Cell Titer-Glo Luminescent Cell Viability Assay (Promega). The half-maximal inhibitory concentration (IC50) was used to calculate the interpolation of nonlinear regression curves by GraphPad Prism 7 software.
(§4) The expression levels of AKR1C3 protein was determined by Western blot analysis. The ex vivo cytotoxicity of OBI-3424 was determined using CellTiter-Glo assay and calculated as 50% maximum inhibitory concentration (IC50).

P31/FUJ cell line = assay: Ex vivo cytotoxicity assay, leukemia cell lines; conditions: Homo sapiens; Table 5: P31/FUJ, AML, 72 h; AKR1C3 expression Low
Description: as §3, §4

[6] = test system: Jurkat, clone E6-1 cell line; assay: Ex vivo cytotoxicity assay, leukemia cell lines; conditions: Homo sapiens
Description: as §3, §4

[7] = test system: KG-1 hematological cancer cell line; assay: Ex vivo proliferation assay, hematological cancer cell lines, 72 h; conditions: Homo sapiens; Table 6: KG-1, 72 h of exposure
Description: as §1
(§5) After exposing the hematological cancer cell lines to compound OBI-3424 for 72 h, the IC50 value was determined by ex vivo proliferation assay. The expression data of AKR1C3 RNA in hematological cancer cell lines was from CrownBio database (https://db.crownbio.com/Crownbio/OncoExpress_Login.aspx).

[8] = test system: SUP-T1 hematological cancer cell line; assay: as above; conditions: Homo sapiens; Table 6: SUP-T1, 72 h of exposure
Description: as §1, §5

[9] = test system: PF-382 hematological cancer cell line; assay: as above; conditions: Homo sapiens; Table 6: PF-382, 72 h of exposure
Description: as §1, §5

[10] = test system: HEL hematological cancer cell line; assay: as above; conditions: Homo sapiens; Table 6: HEL, 72 h of exposure
Description: as §1, §5

[11] = test system: CCRF-CEM hematological cancer cell line; assay: as above; conditions: Homo sapiens; Table 6: CCRF-CEM, 72 h of exposure
Description: as §1, §5

[12] = test system: Jurkat hematological cancer cell line; assay: as above; conditions: Homo sapiens; Table 6: Jurkat, 72 h of exposure
Description: as §1, §5

[13] = test system: TF-1 hematological cancer cell line; assay: as above; conditions: Homo sapiens; Table 6: TF-1, 72 h of exposure
Description: as §1, §5

[14] = test system: TALL-1 hematological cancer cell line; assay: as above; conditions: Homo sapiens; Table 6: TALL-1, 72 h of exposure
Description: as §1, §5

[15] = test system: P31/FUJ hematological cancer cell line; assay: as above; conditions: Homo sapiens; Table 6: P31/FUJ, 72 h of exposure
Description: as §1, §5

IC50 [1]: 1.1 nM
IC50 [2]: 2.5 nM
IC50 [3]: 4.5 nM
IC50 [4]: 0.21 nM
IC50 (NCI-H23 NSCLC cell line): > 1000 nM
IC50 (NCI-H522 NSCLC cell line): > 1000 nM
IC50 [5]: 2.3 nM
IC50 [7]: 153 nM
IC50 [8]: 3.9 nM
IC50 [9]: 6 nM
IC50 [10]: 224 nM
IC50 [11]: 1.7 nM
IC50 [12]: 51.1 nM
IC50 [13]: 16.8 nM
IC50 [14]: 24 nM
IC50 [15]: ≥ 1000 nM
Compound: C[C@H](OP(=O)(N1CC1)N1CC1)c1ccc([N+](=O)[O-])c(Oc2cccc(C(=O)N(C)C)c2)c1 [OBI-3424]
IC50 (NCIH1755 NSCLC cell line): 8.2 nM
IC50 (NCIH2106 NSCLC cell line): > 1000 nM
IC50 (ATN-1 cell line): > 1000 nM
IC50 (P31/FUJ cell line): > 1000 nM
IC50 ([6]; Table 4: Jurkat, Clone E6-1, T-ALL (child), AKR1C3 expression Medium, CellTiter-Glo): 24 nM
IC50 ([6]; Table 5: Jurkat, clone E6-1, T-ALL, 72 h, AKR1C3 expression Low): 24 nM
